How the values were obtained:
[1] = system: low density lipoprotein receptor (LDLR); experiment: Liver LDLR mRNA by real-time PCR in HF/HS diet-fed mice; type: in vivo, mouse; settings: HF/HS diet-fed C57BL/6J mice; Yabukita 0.2% and/or eriodictyol 0.45 g/kg diet; 8 weeks; FIG. 6
Excerpt: Male C57BL/6J mice at 12 weeks of age were preliminarily kept for 1 week and then divided into 5 groups such that the average body weight was equal in all groups, i.e., a control (AIN-93G-based diet) group, a HF/HS (high-fat high-sucrose diet) group, a Yabukita (0.2%) (HF/HS+Yabukita) group, an eriodictyol (HF/HS+eriodictyol) group, and a Yabukita+eriodictyol (HF/HS+Yabukita+eriodictyol) group. A feed supplemented with Yabukita (0.2%) and eriodictyol (0.45 g/kg diet) was given to the mice. The feed was given in an amount of 4 g/day and the mice were kept for 8 weeks under ad libitum drinking conditions. After being fasted for 16 hours, the mice were sacrificed by abdominal aortic puncture under isoflurane anesthesia. […] Yabukita and eriodictyol were examined for their effect on cholesterol metabolism-related gene expression in the liver of high-fat high-sucrose diet-fed obese model mice. C57BL/6J mice were preliminarily kept for 1 week and then divided into the respective groups such that the average body weight was equal in all groups. Each feed was given in an amount of 4 g/day and the mice were kept for 8 weeks under ad libitum drinking conditions. After being fasted for 16 hours, the mice were sacrificed by abdominal aortic puncture under isoflurane anesthesia.

[2] = system: Human multiple myeloma cell line U266; experiment: Cancer cell apoptosis induction, Annexin V/PI flow cytometry; type: cell-based; settings: EGCG and eriodictyol 5 μM each, 96 hours, FIG. 1
Protocol: Human multiple myeloma cell line U266 was subcultured and maintained in RPMI 1640 medium supplemented with 10% fetal bovine serum (FCS) under conditions of 37° C. and water vapor-saturated 5% CO2. The cells were maintained in the logarithmic growth phase. The RPMI 1640 medium used for culture was prepared as follows: per liter of ultrapure water, RPMI 1640 medium (10.4 g), HEPES (2.38 g), injectable penicillin G potassium (100,000 units), streptomycin sulfate injectable (100 mg) and NaHCO3 (2.0 g) were suspended and then filter-sterilized.
Then, the RPMI 1640 medium was supplemented with FCS and used for cell culture. To examine the apoptosis induction effect on human multiple myeloma cell line U266 produced upon combination of EGCG and eriodictyol, double staining was performed with Annexin V and PI. For use as a propidium iodide (PI) stain solution, PI (Sigma) was suspended in PBS at a concentration of 50 μg/mL. […]
Then, the fully suspended cell culture was centrifuged at 300×g for 5 minutes to remove the supernatant, and then suspended with the Annexin V binding buffer, counted with a hemacytometer, centrifuged again at 300×g for 5 minutes and then suspended with the Annexin V binding buffer. […] After compensation, the Annexin V Alexa Fluor 488 conjugate was measured at FL 1 and cells determined to be positive were regarded as apoptotic cells. […]

MCP-1 = experiment: Fat tissue MCP-1 mRNA by real-time PCR in HF/HS diet-fed mice; type: in vivo, mouse; settings: C57BL/6J mice; Yabukita 0.2% and/or eriodictyol 0.45 g/kg diet; 8 weeks; FIG. 5
Excerpt: Male C57BL/6J mice at 12 weeks of age were preliminarily kept for 1 week and then divided into 5 groups such that the average body weight was equal in all groups, i.e., a control (AIN-93G-based diet) group, a HF/HS (high-fat high-sucrose diet) group, a Yabukita (0.2%) (HF/HS+Yabukita) group, an eriodictyol (HF/HS+eriodictyol) group, and a Yabukita+eriodictyol (HF/HS+Yabukita+eriodictyol) group. A feed supplemented with Yabukita (0.2%) and eriodictyol (0.45 g/kg diet) was given to the mice. The feed was given in an amount of 4 g/day and the mice were kept for 8 weeks under ad libitum drinking conditions. After being fasted for 16 hours, the mice were sacrificed by abdominal aortic puncture under isoflurane anesthesia. The collected blood samples were allowed to stand at 37° C. for 2 hours to cause coagulation and then centrifuged at 4° C. at 2000×g for 15 minutes to collect serum fractions. The values of serum total cholesterol and LDL were measured. […] Yabukita and eriodictyol were examined for their effect on obesity in high-fat high-sucrose diet-fed obese model mice. […] After being measured for their body weight, the mice were fasted for 16 hours and then sacrificed by abdominal aortic puncture under isoflurane anesthesia. […] The values of serum total cholesterol and LDL were measured.

O=C1C[C@@H](c2ccc(O)c(O)c2)Oc2cc(O)cc(O)c21 [eriodictyol]
mRNA expression level of LDLR in the liver [1]: no effect | effect on the cancer cell apoptosis induction effect of EGCG (Annexin V positive cells) [2]: enhance the apoptosis induction effect of EGCG | high-fat high-sucrose diet-induced increase in fat tissue MCP-1 expression level (mRNA) (MCP-1): no effect

— patent US10251408B2, “Catechin function enhancement method” (KYUSHU UNIVERSITY, NATIONAL UNIVERSITY CORPORATION, priority 2014, dated 2019)
